Measurements reported in patent US20220089612A1, “HETEROCYCLIC COMPOUNDS AS PRMT5 INHIBITORS” (ANGEX PHARMACEUTICAL, INC., priority 2017, published 2022).
pIC50: −log10 of the molar value.

Target: PRMT5:MEP50 (Homo sapiens, UniProt O14744)
Test: PRMT5:MEP50 Flashplate Assay
Type: biochemical
Details: PRMT5:MEP50 inhibitory activity; 3H-SAM, 2 h at room temperature, top concentration 10 μM
Description: PRMT5:MEP50 Flashplate Assay:
Ten-point curves of inhibitor compounds were made using serial threefold dilutions in DMSO (the final top concentration of compound was 10 μM, 1% DMSO). Reaction mixture consisting of 50 mM Tris-HCl (pH 8.5), 0.002% Tween 20, 0.005% BSA (Bovine Serum Albumin), 1 mM TCEP, and 1% DMSO. Substrates are freshly prepared in reaction buffer. PRMT5:MEP50 was then added into substrate solution and mixed gently. Inhibitor compound was then added and incubated for 30 min at room temperature. ^3H-SAM was added to initiate the reaction. Reactions were incubated for 2 h at room temperature and quenched with 0.5 mM SAM (S-adenosyl-L-Methionine) in assay buffer. An aliquot of the reaction mix was transferred to a streptavidin-coated 384-well FlashPlate (PerkinElmer). After an incubation time of 1 h, the plate was washed and then read on a TopCount (PerkinElmer) to measure the amount of tritium incorporated into the peptide substrate. IC50 was calculated using conventional curve-fitting method.

Sequence of PRMT5:MEP50 (O14744 whole entry, species assumed): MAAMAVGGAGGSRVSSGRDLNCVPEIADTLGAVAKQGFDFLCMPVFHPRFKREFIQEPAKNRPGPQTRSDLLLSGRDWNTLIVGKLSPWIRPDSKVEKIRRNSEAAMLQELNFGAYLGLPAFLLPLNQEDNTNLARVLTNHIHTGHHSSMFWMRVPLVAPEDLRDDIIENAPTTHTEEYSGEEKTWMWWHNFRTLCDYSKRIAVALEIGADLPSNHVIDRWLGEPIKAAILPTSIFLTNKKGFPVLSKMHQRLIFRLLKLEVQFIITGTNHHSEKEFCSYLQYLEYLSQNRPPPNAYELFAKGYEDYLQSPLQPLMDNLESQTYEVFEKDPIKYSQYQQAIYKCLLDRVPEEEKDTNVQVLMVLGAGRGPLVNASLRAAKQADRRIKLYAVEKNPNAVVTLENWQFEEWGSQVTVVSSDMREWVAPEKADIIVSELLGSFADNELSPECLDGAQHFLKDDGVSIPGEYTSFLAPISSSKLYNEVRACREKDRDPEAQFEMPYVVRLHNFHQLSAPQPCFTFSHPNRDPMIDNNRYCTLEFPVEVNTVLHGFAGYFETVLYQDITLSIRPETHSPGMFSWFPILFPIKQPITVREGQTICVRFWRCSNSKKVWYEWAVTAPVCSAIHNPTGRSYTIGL
Sequence of PRMT5:MEP50 (Q9BQA1 whole entry partner, species assumed): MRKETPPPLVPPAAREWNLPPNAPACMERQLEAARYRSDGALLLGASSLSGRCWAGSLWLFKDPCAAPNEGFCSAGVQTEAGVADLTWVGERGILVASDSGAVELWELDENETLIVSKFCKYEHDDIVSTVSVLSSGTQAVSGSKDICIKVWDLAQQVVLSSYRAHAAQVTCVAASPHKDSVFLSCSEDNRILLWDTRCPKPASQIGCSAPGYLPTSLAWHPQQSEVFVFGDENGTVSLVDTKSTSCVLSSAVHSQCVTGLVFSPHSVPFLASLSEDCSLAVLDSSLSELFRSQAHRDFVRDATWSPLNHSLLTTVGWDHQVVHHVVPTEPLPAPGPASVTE

SMILES | pIC50
Cn1[nH]c2nc3cc(CC[C@H]4C[C@@H](n5ccc6c(N)ncnc65)[C@H](O)[C@@H]4O)ccc3cc2c1=O [Compound 1-34, 7-(2-((1S,2R,3S,4R)-4-(4-amino-7H-pyrrolo[2,3-d]pyrimidin-7-yl)-2,3-dihydroxycyclopentyl)ethyl)-2-methyl-1,2-dihydro-3H-pyrazolo[3,4-b]quinolin-3-one] | < 7.00
C[C@H]1Cc2cc3ccc(CC[C@H]4C[C@@H](n5ccc6c(N)ncnc65)[C@H](O)[C@@H]4O)cc3nc2N1 [Compound 1-20, (1R,2S,3R,5S)-3-(4-amino-7H-pyrrolo[2,3-d]pyrimidin-7-yl)-5-(2-((S)-2-methyl-2,3-dihydro-1H-pyrrolo[2,3-b]quinolin-7-yl)ethyl)cyclopentane-1,2-diol] | > 9.00
Nc1ncnc2c1ccn2[C@@H]1C[C@H](CCc2ccc3c(c2)nc(N)n2ccnc32)[C@@H](O)[C@H]1O [Compound 1-9, (1R,2S,3R,5S)-3-(4-amino-7H-pyrrolo[2,3-d]pyrimidin-7-yl)-5-(2-(5-aminoimidazo-[1,2-c]quinazolin-8-yl)ethyl)cyclopentane-1,2-diol] | > 9.00
CC(C)[C@@H]1Cc2cc3ccc(CC[C@H]4C[C@@H](n5ccc6c(N)ncnc65)[C@H](O)[C@@H]4O)cc3nc2N1 [Compound 1-25, (1R,2S,3R,5S)-3-(4-amino-7H-pyrrolo[2,3-d]pyrimidin-7-yl)-5-(2-((S)-2-isopropyl-2,3-dihydro-1H-pyrrolo[2,3-b]quinolin-7-yl)ethyl)cyclopentane-1,2-diol] | > 9.00
Nc1ncnc2c1ccn2[C@@H]1C[C@H](CCc2ccc3cc4c(nc3c2)N[C@@H](C2CC2)C4)[C@@H](O)[C@H]1O [Compound 1-23, (1R,2S,3R,5S)-3-(4-amino-7H-pyrrolo[2,3-d]pyrimidin-7-yl)-5-(2-((R)-2-cyclopropyl-2,3-dihydro-1H-pyrrolo[2,3-b]quinolin-7-yl)ethyl)cyclopentane-1,2-diol] | > 9.00
Nc1ncnc2c1ccn2[C@@H]1C[C@H](CCc2ccc3cc4nn[nH]c4nc3c2)[C@@H](O)[C@H]1O [Compound 1-19, (1S,2R,3S,5R)-3-(2-(3H-[1,2,3]triazolo[4,5-b]quinolin-6-yl)ethyl)-5-(4-amino-7H-pyrrolo[2,3-d]pyrimidin-7-yl)cyclopentane-1,2-diol] | 7.00 to 9.00
C[C@@H]1Cc2cc3ccc(CC[C@H]4C[C@@H](n5ccc6c(N)ncnc65)[C@H](O)[C@@H]4O)cc3nc2N1 [Compound 1-21, (1R,2S,3R,5S)-3-(4-amino-7H-pyrrolo[2,3-d]pyrimidin-7-yl)-5-(2-((R)-2-methyl-2,3-dihydro-1H-pyrrolo[2,3-b]quinolin-7-yl)ethyl)cyclopentane-1,2-diol] | > 9.00
C[C@H]1CCc2cc3ccc(CC[C@H]4C[C@@H](n5ccc6c(N)ncnc65)[C@H](O)[C@@H]4O)cc3nc2N1 [Compound 1-36, (1R,2S,3R,5S)-3-(4-amino-7H-pyrrolo[2,3-d]pyrimidin-7-yl)-5-(2-((S)-2-methyl-1,2,3,4-tetrahydrobenzo[b][1,8]naphthyridin-8-yl)ethyl)cyclopentane-1,2-diol] | > 9.00
Nc1ncnc2c1ccn2[C@@H]1C[C@H](CCc2ccc3cc4c(nc3c2)NOCC4)[C@@H](O)[C@H]1O [Compound 1-13, (1R,2S,3R,5S)-3-(4-amino-7H-pyrrolo[2,3-d]pyrimidin-7-yl)-5-(2-(3,4-dihydro-1H-[1,2]oxazino[3,4-b]quinolin-8-yl)ethyl)cyclopentane-1,2-diol] | > 9.00
Nc1ncnc2c1ccn2[C@@H]1C[C@H](CCc2ccc3cc4c(nc3c2)N[C@H](C2CC2)C4)[C@@H](O)[C@H]1O [Compound 1-22, (1R,2S,3R,5S)-3-(4-amino-7H-pyrrolo[2,3-d]pyrimidin-7-yl)-5-(2-((S)-2-cyclopropyl-2,3-dihydro-1H-pyrrolo[2,3-b]quinolin-7-yl)ethyl)cyclopentane-1,2-diol] | > 9.00
CC(C)[C@@H]1CCc2cc3ccc(CC[C@H]4C[C@@H](n5ccc6c(N)ncnc65)[C@H](O)[C@@H]4O)cc3nc2N1 [Compound 1-39, (1R,2S,3R,5S)-3-(4-amino-7H-pyrrolo[2,3-d]pyrimidin-7-yl)-5-(2-((S)-2-isopropyl-1,2,3,4-tetrahydrobenzo[b][1,8]naphthyridin-8-yl)ethyl)cyclopentane-1,2-diol] | 7.00 to 9.00
NC1=Nc2cc(CC[C@H]3O[C@@H](n4ccc5c(N)ncnc54)[C@H](O)[C@@H]3O)ccc2C2=NCCN12 [Compound 3-10, (2R,3S,4R,5R)-2-(2-(5-amino-2,3-dihydroimidazo[1,2-c]quinazolin-8-yl)ethyl)-5-(4-amino-7H-pyrrolo[2,3-d]pyrimidin-7-yl)tetrahydrofuran-3,4-diol] | > 9.00
C=CC[C@@H]1Cc2cc3ccc(CC[C@H]4C[C@@H](n5ccc6c(N)ncnc65)[C@H](O)[C@@H]4O)cc3nc2N1 [Compound 1-27, (1S,2R,3S,5R)-3-(2-((R)-2-allyl-2,3-dihydro-1H-pyrrolo[2,3-b]quinolin-7-yl)ethyl)-5-(4-amino-7H-pyrrolo[2,3-d]pyrimidin-7-yl)cyclopentane-1,2-diol] | > 9.00
C[C@@H]1CCc2cc3ccc(CC[C@H]4C[C@@H](n5ccc6c(N)ncnc65)[C@H](O)[C@@H]4O)cc3nc2N1 [Compound 1-37, (1R,2S,3R,5S)-3-(4-amino-7H-pyrrolo[2,3-d]pyrimidin-7-yl)-5-(2-((R)-2-methyl-1,2,3,4-tetrahydrobenzo[b][1,8]naphthyridin-8-yl)ethyl)cyclopentane-1,2-diol] | > 9.00
Nc1ncnc2c1ccn2[C@@H]1O[C@H](CCc2ccc3c(c2)nc(N)n2ccnc32)[C@@H](O)[C@H]1O [Compound 3-11, (2R,3R,4S,5R)-2-(4-amino-7H-pyrrolo[2,3-d]pyrimidin-7-yl)-5-(2-(5-aminoimidazo-[1,2-c]quinazolin-8-yl)ethyl)tetrahydrofuran-3,4-diol] | 7.00 to 9.00
NC1=Nc2cc(CC[C@H]3C[C@@H](n4ccc5c(N)ncnc54)[C@H](O)[C@@H]3O)ccc2C2=NCCN12 [Compound 1-8, (1S,2R,3S,5R)-3-(2-(5-amino-2,3-dihydroimidazo[1,2-c]quinazolin-8-yl)ethyl)-5-(4-amino-7H-pyrrolo[2,3-d]pyrimidin-7-yl)cyclopentane-1,2-diol] | > 9.00
Nc1ncnc2c1ccn2[C@@H]1O[C@H](CCc2ccc3cc4cn[nH]c4nc3c2)[C@@H](O)[C@H]1O [Compound 3-12, (2R,3S,4R,5R)-2-(2-(1H-pyrazolo[3,4-b]quinolin-7-yl)ethyl)-5-(4-amino-7H-pyrrolo[2,3-d]pyrimidin-7-yl)tetrahydrofuran-3,4-diol] | 7.00 to 9.00
